Assay results taken from US20220370609A1, “Polymer complex for anticancer immune therapy based on ultrasound comprising oxalate derivatives and Method of preparation thereof” (RESEARCH & BUSINESS FOUNDATION SUNGKYUNKWAN UNIVERSITY, priority 2021, published 2022).

Test system: CT26 cells
Experiment: Cell death type by FITC-annexin V and PI staining
Type: cell-based
Conditions: 5 μM VPF, 2 hours, ultrasound 5 minutes
Procedure: CT26 colorectal cells were cultured in an RPMI 1640 medium containing 10% fetal bovine serum (FBS) and 1% antibiotic-antimycotic. 5×10^6 of CT26 cells were treated with Ox@PEG-VPF and the controls for 2 hours based on 5 μM VPF, and then resuspended in 1 ml of the RPMI 1640 medium, followed by ultrasound treatment for 5 minutes.
After 100 μl of the CT26 cell suspension that had been treated with ultrasound was resuspended in 900 μl of the FITC-annexin V/PI mixed solution and maintained for 30 minutes, the resulting cells were washed twice with PBS and observed by confocal microscopy.
Specifically, the Ox@ PEG-VPF of the present invention reacted with a high concentration of ROS present in cancer cells to produce CO2 in the cells, and was treated with a FITC-labeled annexin compound (FITC-annexin V; excitation/emission wavelength—490/525 nm) and propidium iodide (PI; excitation/emission wavelength 535/617 nm) to confirm whether ICD occurs by the cavitation effect and cell membrane rupture caused by ultrasound.

verteporfin [VPF]
cell death type (FITC-annexin V / PI staining): induced the apoptosis of cancer cells
